What is called MIC99 is an inhibitory concentration at the 99% level, which refers to growth in some studies and to a panel of isolates in others.

This assay has as its system Mycobacterium tuberculosis. Description: Antituberculosis activity against Mycobacterium tuberculosis. Type of assay: functional.

Molecules are shown by their SMILES. Converted amounts (≈) assume the structure as drawn.

Regarding `COc1nc2ccc(Br)cc2cc1[C@@H](c1ccccc1)[C@@](O)(CCN(C)C)c1cccc2ccccc12` [BEDAQUILINE], the MIC99 turned out to be 0.06 µg/mL (≈ 0.108 µM).

Source of the values: ChEMBL document CHEMBL1140613, “Antituberculosis drugs: ten years of research” (2007).
